The values that follow come from patent US11643421B2, “Process for the preparation of tricyclic PI3K inhibitor compounds and methods for using the same for the treatment of cancer” (priority 2015, dated 2023).

Data set [1] deals with P-gp and BCRP. Kind of data set: Transport assays in cell monolayers, overall. Type of data set: in vitro ADME. The method, then: MDR1-MDCKI cells were licensed from the NCI (National Cancer Institute, Bethesda, Md.) and Bcrp1-MDCKII, BCRP-MDCKII and Mdr1a-LLC-PK1 cells were obtained from the Netherlands Cancer Institute (Amsterdam. The Netherlands). […] The compound was dissolved in transport buffer consisting of Hank's balanced salt solution (HBSS) with 10 mM HEPES (Invitrogen Corporation, Grand Island, N.Y.). Lucifer Yellow (Sigma-Aldrich, St. Louis, Mo.) was used as the paracellular and monolayer integrity marker. […] The efflux ratio (ER) was calculated (Papp, B-A/Papp, A-B).

The target in data set [2] is PhK_gamma2 (Homo sapiens, UniProt P15735). Nature of the data set: biochemical. The note with it: read-out: % inhib.
Data set [3] addresses Axl (Homo sapiens, UniProt P30530). Nature of the data set: biochemical. The conditions noted are these: read-out: % inhib.
For data set [4], the system named is p4EBP1. Kind of data set: PI3K pathway modulation in GS2 tumors, western blot. It is filed as in vivo, mice. The note with it: 15 mg/kg PO daily 4 weeks. For orientation: In western blotting, separated proteins are transferred to a membrane and probed.
The target in data set [5] is GRK5 (Homo sapiens, UniProt P34947). Nature of the data set: biochemical. The note with it: read-out: % inhib.
Data set [6] concerns U87 intracranial tumors. Kind of data set: Efficacy in U87 intracranial model. Type of data set: in vivo, mice. The conditions noted are these: 15 mg/kg PO daily for 2 weeks, micro-CT. An excerpt:
These U87 and GS2 models are PTEN-deficient, with the GS2 cell line presenting a copy number loss at the PTEN locus (Gunther H S, et al.) with no detectable PTEN protein by western blot (Carlson […], Schroeder […]., “Establishment, maintenance and in vitro and in vivo applications of primary human glioblastoma multiforme (GBM) xenograft models for translational biology studies and drug discovery”, Curr Protoc Pharmacol. 2011; Chapter 14: Unit 14 16). The identity of the two cell lines was confirmed by STR profiling (DNA Diagnostics Center) using cells within 5 passages of those utilized for in vivo studies. […] The differences between treatment groups were evaluated using Student's t test in Prism (Prism 5, GraphPad). […] Body temperature was continuously monitored using a rectal probe and was maintained at 37° C. by a heated-air flow system regulated by in-house LabVIEW controller software. […] 12-20 axial 0.5-0.8 mm-thick slices were acquired with a 20×20 mm field of view (FOV), and 128×128 matrix, zero-filled to 256×256 mages. […] Brain sample preparation, micro-CT scanning, and image analysis for ex-vivo micro-CT imaging were performed as described previously (de […], Nishimura M C, Phillips H, Carano […] micro-CT imaging of the postmortem brain”, J. Neurosci. Methods. 2008; 171 (2): 207-213).

Data set [7] deals with CaMKII_beta (Homo sapiens, UniProt Q13554). Nature of the data set: biochemical. The note with it: read-out: % inhib.
Data set [8] has as its system U87 MG Merchant (MG/M) human glioblastoma xenografts. The method, then: All in vivo studies were conducted in compliance with Genentech's Institutional Animal Care and Use Committee. […] Cells in log-phase growth were harvested and resuspended in HBSS:Matrigel (BD Biosciences; Franklin Lakes, N.J.) (1:1, v:v) for injection into female NCr nude mice (Taconic Farms, Cambridge City, Ind.) aged 20 weeks. Animals received five million cells subcutaneously in the right lateral thorax in 0.1 mL. […] The inhibitor was formulated once weekly in 0.5% methylcellulose and 0.2% Tween-80 at concentrations needed for target doses in a volume of 0.2 mL. All formulations were stored in a refrigerator and brought to room temperature and mixed well by vortex before oral administration by gavage once daily for 23 days. Tumor volumes were calculated from perpendicular length and width caliper measurements using the formula: Tumor Volume (mm^3)=0.5×(Length×Width^2). Changes in body weights are reported as a percentage change from the starting weight.
Log 2(tumor volume) growth traces were fitted to each dose group with restricted cubic splines for the dose and fixed time effects. […] Fitted tumor volumes were plotted in the natural scale in Prism (version 5.0b for Mac) (GraphPad Software; La Jolla, Calif.). Linear mixed-effects analysis was also employed using R to analyze the repeated measurement of body weight changes from the same animals over time.
The mice control group was administered the vehicle in the absence of the drug once at the same dosage schedule. Changes in tumor volumes over time by dose for each compound are depicted in FIG. 3 as cubic spline fits generated via Linear Mixed Effects analysis of log-transformed volumes.

Data set [9] in a line: MALDI imaging of brain distribution, U87 orthotopic model. It is filed as in vivo, female nude mice. The note with it: 15 mg/kg PO, 1 hour post dose. The method, then: Mice were euthanized at 1 and 6 hours post-dose via exsanguination by perfusion under anesthesia. Brains were excised, flash frozen in liquid N2 and stored in a −80° C. freezer until analyzed. Fresh frozen tissue sections were obtained on a cryomicrotome (Leica CM3050S, Buffalo Grove, Ill.) at 12 μm thickness and thaw-mounted onto indium tin oxide coated glass slides (Bruker Daltonics, Billerica, Mass.). Tissue sections were an analyzed by imaging MALDI MS, providing signal intensities (and not absolute quantitation), followed by cresyl violet staining for histological interrogation.
For MALDI MAS analysis, a 40 mg/mL solution of 2,5-dihydroxybenzoic acid (Sigma-Aldrich, St. Louis, Mo.) was prepared in methanol:water (70:30 v/v). […] Matrix solution was homogenously spray-coated onto the tissue using a HTX TM-Sprayer (HTX technologies. Chapel Hill, N.C.). Matrix-coated tissue sections were transferred to the MALDI mass spectrometer (SolariX 7T FT-ICR, Bruker Daltonics, Bremen, Germany) for imaging analysis. […] Laser intensity and number of shots were optimized for sensitivity of the parent drug (1200 shots) with ion detection collected over the mass range of m/z 150-3000.
Following completion of the imaging experiments, matrix coaling was removed by rinsing the glass slide in 100% methanol for 30 seconds or until the entire matrix was visibly removed. […] Microscope images were obtained on an Olympus BX51 (Tokyo, Japan) at 10× magnification and stitched using MicroSuite Analytical v3.0 software (Olympus, Tokyo, Japan). Subsequently, stained images were co-registered to the optical images in FlexImaging for visualization and annotation of tumor and non-tumor regions for the drug images.
To assess drug distribution, imaging MALDI MS data from U87 and GS2 tumor models were co-registered to the cresyl violet stained microscope images in FlexImaging Regions of interest (ROIs) that were selected based on the anatomical features defined in the histological image including tumor and non-tumor regions. Drug intensity for each pixel within the defined ROI was extracted and exported. […] Histogram plots were created in GraphPad Prism 5 to visualize the distribution of pixel intensity frequencies.

In data set [10] the target is InsR (Homo sapiens, UniProt P06213). Kind of data set: biochemical. The note with it: read-out: % inhib.
Chain of InsR (P06213 28-1382, species assumed): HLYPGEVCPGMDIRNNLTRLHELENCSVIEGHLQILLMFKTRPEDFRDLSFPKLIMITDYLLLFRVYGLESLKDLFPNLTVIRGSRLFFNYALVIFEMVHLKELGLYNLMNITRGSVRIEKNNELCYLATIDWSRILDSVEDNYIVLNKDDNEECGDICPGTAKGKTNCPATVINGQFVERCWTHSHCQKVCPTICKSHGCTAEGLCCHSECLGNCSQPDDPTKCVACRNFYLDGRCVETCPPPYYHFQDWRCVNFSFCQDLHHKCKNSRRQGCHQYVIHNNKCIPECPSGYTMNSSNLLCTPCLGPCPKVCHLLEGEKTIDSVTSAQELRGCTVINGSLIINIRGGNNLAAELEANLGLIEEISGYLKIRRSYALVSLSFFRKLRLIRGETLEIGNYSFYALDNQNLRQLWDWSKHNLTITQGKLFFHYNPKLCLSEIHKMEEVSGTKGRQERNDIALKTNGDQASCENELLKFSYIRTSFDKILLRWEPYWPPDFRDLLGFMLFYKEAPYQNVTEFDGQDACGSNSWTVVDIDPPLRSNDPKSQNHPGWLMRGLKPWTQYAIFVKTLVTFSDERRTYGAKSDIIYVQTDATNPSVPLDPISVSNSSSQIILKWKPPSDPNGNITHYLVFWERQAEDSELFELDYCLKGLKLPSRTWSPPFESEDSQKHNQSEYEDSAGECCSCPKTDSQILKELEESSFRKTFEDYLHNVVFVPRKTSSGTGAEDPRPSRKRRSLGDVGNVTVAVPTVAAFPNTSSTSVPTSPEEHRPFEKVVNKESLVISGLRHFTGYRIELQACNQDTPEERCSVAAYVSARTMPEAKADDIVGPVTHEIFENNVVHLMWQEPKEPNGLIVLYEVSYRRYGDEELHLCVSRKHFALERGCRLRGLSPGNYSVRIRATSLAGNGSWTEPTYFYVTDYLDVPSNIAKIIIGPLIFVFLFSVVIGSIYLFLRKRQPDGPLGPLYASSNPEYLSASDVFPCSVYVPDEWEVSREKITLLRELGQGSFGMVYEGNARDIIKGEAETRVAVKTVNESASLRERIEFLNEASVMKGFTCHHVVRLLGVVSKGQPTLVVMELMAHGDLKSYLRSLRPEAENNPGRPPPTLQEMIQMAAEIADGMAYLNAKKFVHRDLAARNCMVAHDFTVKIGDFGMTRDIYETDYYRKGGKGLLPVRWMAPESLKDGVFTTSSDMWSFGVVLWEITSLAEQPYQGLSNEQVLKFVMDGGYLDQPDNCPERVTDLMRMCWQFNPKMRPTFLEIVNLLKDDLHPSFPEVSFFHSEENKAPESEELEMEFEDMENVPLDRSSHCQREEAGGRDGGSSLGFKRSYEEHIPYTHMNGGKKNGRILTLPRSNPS

Chain of GRK5 (P34947 whole entry): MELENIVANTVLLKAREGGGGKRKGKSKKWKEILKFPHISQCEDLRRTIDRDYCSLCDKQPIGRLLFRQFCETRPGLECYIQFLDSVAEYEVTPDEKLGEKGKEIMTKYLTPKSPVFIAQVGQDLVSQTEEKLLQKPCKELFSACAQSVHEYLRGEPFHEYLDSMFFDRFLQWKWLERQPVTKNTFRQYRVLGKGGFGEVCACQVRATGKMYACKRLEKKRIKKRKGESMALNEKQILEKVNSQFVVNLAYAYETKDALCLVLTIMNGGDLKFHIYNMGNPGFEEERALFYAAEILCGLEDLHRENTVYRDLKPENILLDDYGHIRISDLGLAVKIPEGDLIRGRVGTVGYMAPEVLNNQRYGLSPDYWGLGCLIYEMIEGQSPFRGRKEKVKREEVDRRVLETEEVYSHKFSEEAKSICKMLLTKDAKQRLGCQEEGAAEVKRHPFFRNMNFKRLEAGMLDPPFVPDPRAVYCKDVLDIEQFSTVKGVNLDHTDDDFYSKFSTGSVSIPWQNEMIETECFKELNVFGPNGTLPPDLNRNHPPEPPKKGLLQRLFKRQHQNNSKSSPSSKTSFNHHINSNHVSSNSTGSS
Chain of CaMKII_beta (Q13554 whole entry): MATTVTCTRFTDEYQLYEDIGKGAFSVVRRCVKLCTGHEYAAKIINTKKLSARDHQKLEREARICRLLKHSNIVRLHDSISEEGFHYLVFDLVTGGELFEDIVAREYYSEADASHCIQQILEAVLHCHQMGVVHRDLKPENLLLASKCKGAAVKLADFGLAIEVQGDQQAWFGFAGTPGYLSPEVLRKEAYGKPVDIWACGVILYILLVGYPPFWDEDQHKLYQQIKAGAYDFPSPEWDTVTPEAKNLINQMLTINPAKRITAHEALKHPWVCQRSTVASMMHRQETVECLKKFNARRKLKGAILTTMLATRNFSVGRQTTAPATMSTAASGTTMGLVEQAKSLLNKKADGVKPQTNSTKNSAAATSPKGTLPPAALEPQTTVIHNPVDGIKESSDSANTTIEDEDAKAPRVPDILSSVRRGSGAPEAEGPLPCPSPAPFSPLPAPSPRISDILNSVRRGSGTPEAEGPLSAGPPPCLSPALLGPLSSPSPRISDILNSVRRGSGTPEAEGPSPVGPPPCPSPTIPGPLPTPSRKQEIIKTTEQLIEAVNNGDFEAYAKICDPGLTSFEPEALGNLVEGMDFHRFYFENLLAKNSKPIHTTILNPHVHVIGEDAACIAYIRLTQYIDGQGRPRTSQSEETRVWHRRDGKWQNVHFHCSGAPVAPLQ
Chain of Axl (P30530 26-894, species assumed): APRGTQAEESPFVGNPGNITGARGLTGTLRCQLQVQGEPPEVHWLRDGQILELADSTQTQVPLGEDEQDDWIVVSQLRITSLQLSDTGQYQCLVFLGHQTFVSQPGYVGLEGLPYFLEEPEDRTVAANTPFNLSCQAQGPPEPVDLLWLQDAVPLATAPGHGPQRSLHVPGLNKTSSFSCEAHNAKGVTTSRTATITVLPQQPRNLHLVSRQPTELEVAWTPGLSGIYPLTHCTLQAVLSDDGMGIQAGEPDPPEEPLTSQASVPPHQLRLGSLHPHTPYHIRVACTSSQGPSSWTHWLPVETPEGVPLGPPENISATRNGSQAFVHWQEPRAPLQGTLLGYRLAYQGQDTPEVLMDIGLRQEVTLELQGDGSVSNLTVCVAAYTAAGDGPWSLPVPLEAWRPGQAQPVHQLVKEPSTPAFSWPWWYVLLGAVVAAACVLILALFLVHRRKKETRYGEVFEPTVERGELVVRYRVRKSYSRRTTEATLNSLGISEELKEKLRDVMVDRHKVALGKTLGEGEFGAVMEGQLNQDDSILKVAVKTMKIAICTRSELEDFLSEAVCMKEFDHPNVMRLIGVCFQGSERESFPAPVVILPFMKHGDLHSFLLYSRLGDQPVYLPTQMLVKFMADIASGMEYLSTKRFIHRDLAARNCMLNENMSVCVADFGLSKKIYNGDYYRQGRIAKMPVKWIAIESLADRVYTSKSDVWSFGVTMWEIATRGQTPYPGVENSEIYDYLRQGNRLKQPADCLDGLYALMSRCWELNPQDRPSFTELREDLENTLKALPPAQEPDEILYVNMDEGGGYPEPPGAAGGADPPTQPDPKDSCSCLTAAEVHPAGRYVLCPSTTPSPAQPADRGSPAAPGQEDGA
Chain of PhK_gamma2 (P15735 whole entry): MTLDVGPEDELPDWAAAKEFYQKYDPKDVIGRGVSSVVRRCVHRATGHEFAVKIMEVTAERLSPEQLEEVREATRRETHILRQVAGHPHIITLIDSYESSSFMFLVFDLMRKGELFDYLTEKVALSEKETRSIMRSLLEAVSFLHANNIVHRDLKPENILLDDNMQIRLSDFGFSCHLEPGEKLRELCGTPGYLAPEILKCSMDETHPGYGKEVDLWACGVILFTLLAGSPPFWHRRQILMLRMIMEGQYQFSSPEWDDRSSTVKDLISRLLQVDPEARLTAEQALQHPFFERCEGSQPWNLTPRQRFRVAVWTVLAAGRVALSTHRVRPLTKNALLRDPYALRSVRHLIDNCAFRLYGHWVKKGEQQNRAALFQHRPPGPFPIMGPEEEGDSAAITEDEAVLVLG

`CC1(C)OCCn2c1nc1c(N3CCOCC3)nc(-c3cnc(N)nc3)nc12` [GDC-0084, 5-(6,6-dimethyl-4-morpholino-8,9-dihydro-6H-[1,4]oxazino[3,4-e]purin-2-yl)pyrimidin-2-amine]: the “substrate of efflux transporters” value in [1] (efflux ratios in MDCK or LLC-PK1 transfected cells) was “poor substrate of the efflux transporters P-gp and BCRP”. In addition, the “apparent permeability (Papp), in words” value in [1] (transfected MDCK and LLC-PK1 cells) was “high and comparable to that of metoprolol”. In addition, the inhibition at 1 µM is 0% in data set [2]; 6% in [3]; -10% in data set [5]; 0.2% in data set [7]; 6% in data set [10]. The “Suppression of p4EBP1 in GS2 tumors” value in data set [4] (2 hours after final administration) came to 43%. In [4] (8 hours post-dose), the “p4EBP1 level in GS2 tumors” value is reported as “back to baseline levels”. Further, in [6], the “U87 tumor volume reduction versus vehicle control” value is “approximately 70%”. In addition, the “tumor response at highest dose” value in data set [8] (17.9 mg/kg dose level) was “tumor regressions”. For the same compound, the tumor growth inhibition entry in data set [8] (0.45-17.9 mg/kg oral, 23 days) is “significant and dose-dependent tumor growth inhibition”. For the same compound, the tolerability entry in [8] (mouse, in vivo) is on record as “well tolerated”. Moreover, the “dose level at which tumor growth inhibition was first observed” value in data set [8] (oral dose escalation) is 2.2 mg/kg. Also, the “distribution in brain and intracranial tumors (MALDI images)” value in [9] (U87 and GS2 models) was “distributed readily and quite evenly throughout the brain”. Also, the “mean pixel intensity (MALDI imaging)” value in [9] (U87 tumors) and in data set [9] (healthy brain of U87 tumor-bearing mice) was 0.54 throughout.
